What was measured:
Type in all cases: cell-based
GPX4 = GPX4 protein level by Western-blot
Source text: As mentioned above, RSL3 treatment results in an oxidized environment in cells, which promotes the CMA to scavenge damaged proteins including GPX4 or glyceraldehyde-3-phosphate dehydrogenase (GAPDH), a well-known CMA substrate. To gain insights into the mechanism of action of bilobalide analogue XBB-037 against the RSL3-induced ferroptosis, HMC3 cells were pre-treated with RSL3, followed by treatment with or without bilobalide analogue XBB-037.
In FIN56 assay, HMC3 (300,000 cells per well on 6-well plate) was pre-treated with FIN56 (2.5, 1.25, 0.625 μM) for 2 h, followed by 8 h treatment of DMSO only (0.1%) or XBB-037 (50 μM). In RSL3 assay, HMC3 (300,000 cells per well on 6-well plate) was pre-treated with RSL3 (750, 500, 250 nM) for 2 h, followed by 4 h or 8 h treatment of DMSO only (0.1%) or XBB-037 (50 μM). […] Antibodies for GPX4 (52455, CST) was used at 1:500 dilution, β-Actin (AC026, ABclonal) was used at 1:400,000 dilution, GAPDH (AC035, ABclonal) was used at 1:3000 dilution. […] Band intensity was normalized by image lab software.
Now referring to FIGS. 7E-7F, GPX4 levels in HMC3 cells pre-treated with RSL3 are shown. Protein levels of GPX4 and […] at 0, 250, 500 or 750 nM RSL3 were measured by Western-blot. HMC3 cells were pretreated with RSL3 for 2 hours and then treated with or without 50 μM bilobalide analogue XBB-037 for 4 hours.
In addition to […], FIN56 was further used to investigate the GPX4 regulation of bilobalide analogue XBB-037. As mentioned above, FIN56 is a Class III ferroptosis inducer, which causes the depletion of cellular GPX4 levels without affecting GPX4 activity. In this experiment, HMC3 cells were pretreated with FIN56 for 2 hours and then treated with or without 50 μM XBB-037 for 8 hours. Protein levels were measured by Western-blotting using indicated antibodies. Data were plotted as mean±s.d., n=3 technical replicates. **p<0.01. Statistical analyses were performed by two-way ANOVA with multiple comparisons using Two-stage linear step-up procedure of Benjamini, Krieger and Yekutieli multiple comparisons test. […]

HMC3 cells [1] = experiment: Intracellular ROS level by CellROX (fluorescent imaging and flow cytometry); settings: HMC3, 50 nM RSL3 2 h, then 50 μM compound 3 h
Procedure: For flow cytometry, HMC3 cells (seeded 50,000 cells per well on 24-well plate one day prior to the experiment) were pretreated with 50 nM RSL3 for 2 h. […] After which medium was replaced with BODIPY™ 581/591C11 (10 μM, Invitrogen) or CellROX™ Green (5 μM, Invitrogen) for 30 min staining. Cells were then washed 3 times with PBS and collected. Fluorescence was measured by BD FACSympgony A5.2 SORP Flow Cell Analyzer (BD Biosciences).
For fluorescent imaging, 10,000 cells per well of HMC3 were laid on cover slip and incubated overnight. After the same compound treatment as described above in this section, cells were subsequently incubated with CellROX™ Green and Hoechst 34580 (MCE) for 30 min. After incubation, cells were washed 3 times gently with PBS. Cover slips were then attached to glass slides by Anti-Fade Fluorescence Mounting Medium (Abcam) and imaged via ECLIPSE Ti fluorescence microscope (Nikon). Fluorescent intensity was quantified using imageJ software.
To further evaluate the anti-ferroptotic properties of bilobalide analogues, we tested its effect on the total level of intracellular reactive oxygen species (ROS), we performed fluorescent staining on the HMC3 cell line using CellROX, which is a probe which can emit green fluorescence after reacting with ROS. […]

HMC3 cells [2] = experiment: Cytotoxicity, cell viability of HMC3 cells; settings: 24 h treatment
Source text: Now referring to FIG. 11A, a chart showing the cell viability (%) of HMC3 cells treated with SXQ087-1, XBB-037 or bilobalide.

CC(C)(C)[C@]1(O)C[C@@H]2OC(=O)C[C@@]23C(=O)O[C@@H]2N(c4ccc(N)cc4)C(=O)[C@H](OC(=O)c4ccccc4)[C@]213 [XBB-037, 4-(3aS,5aS,8R,9R,10aS)-8-(benzoyloxy)-9-(tert-butyl)-9-hydroxy-2,4,7-trioxohexahydro-4H,9H-furo[3″,2″:2′,3′]cyclopenta[1′,2′:3,4]furo[2,3-b]pyrrol-6(5aH)-yl)benzenaminium chloride]
GPX4 level after FIN56 (GPX4; HMC3, FIN56 0.625, 1.25, 2.5 μM 2 h, then 50 μM compound 8 h): significantly restored GPX4 level
GPX4 level after RSL3 (GPX4; HMC3, RSL3 0, 250, 500 or 750 nM 2 h, then 50 μM compound 4 h): RSL3-induced GPX4 degradation was reduced
intracellular ROS level (CellROX fluorescent staining) (HMC3 cells [1]): significantly reduced intracellular ROS level
cytotoxicity (cell viability) (HMC3 cells [2]): no significant cytotoxicity
